Results from patent US20190376046A1, “METHODS FOR MANIPULATING CELL FATE” (The McLean Hospital Corporation, priority 2017, published 2019).
pEC50, pIC50: −log10 of the molar value.

Legend:
[1] = system: human dermal fibroblasts (hDFs); experiment: Live cell metabolic analysis (Seahorse XF, OCR/ECAR) in fibroblasts; format: cell-based; conditions: 0.2 mM; Y4+SIRT2 KD fibroblasts
Method: Oxygen consumption rate (OCR) and extracellular acidification rates (ECAR) were measured using the XFp8 or XF24 analyzer (Seahorse Bioscience, MA) according to the manufacturer's instruction. Briefly, cells were plated into wells of an XF cell culture microplate and incubated at 37° C. in a CO2 incubator for 24 h to ensure attachment. The assay was started after cells were equilibrated for 1 h in XF assay medium supplemented with 10 mM glucose, 5 mM sodium pyruvate and 2 mM glutamine in a non-CO2 incubator. Mitochondrial activity between hDFs and hESCs/parental hDFs and iPSCs were monitored through sequential injections of 1 μM oligomycin, […] FCCP and 1 μM rotenone/antimycin A to calculate basal respiration rates (baseline OCR—rotenone/antimycin A OCR), ATP dependent (basal respiration rate—oligomycin OCR), maximum respiration (FCCP OCR— rotenone/antimycin A OCR), and oxidative reserve (maximum respiration rate—basal respiration rate). Glycolytic processes were measured by serial injections of 10 mM glucose, 1 μM oligomycin, and 100 mM 2-deoxyglucose to calculate basal glycolytic rate, glycolytic capacity (in response to oligomycin), and glycolytic reserve (glycolytic capacity—basal rate). Each plotted value was normalized to total protein quantified using a Bradford protein assay (Bio-Rad).

hDFs = experiment: Human iPSC induction, AP-positive colonies; format: cell-based; conditions: 1 mM or higher concentration; fibroblasts
Method: Human dermal fibroblasts (hDFs) were cultured in Dulbecco's modified Minimal Essential Medium (DMEM; Invitrogen, Carlsbad, Calif.) supplemented with 2 mM L-glutamine (Invitrogen), 10% fetal bovine serum (FBS; Invitrogen), 100 U/ml penicillin and 100 μg/ml streptomycin (Invitrogen). For iPSC induction, DMEM/F-12 medium supplemented with 2 mM L-glutamine (Invitrogen), 1 mM […] (Invitrogen), 1× non-essential amino acids (NEAA; Invitrogen), 20% knock-out serum replacement (KSR; Invitrogen), 100 U/ml penicillin, 100 μg/ml streptomycin (Invitrogen) and 10 ng/ml basic fibroblast growth factor (bFGF; Invitrogen) was used as the reprogramming medium. Human ESC lines and hiPSC lines were maintained in Essential 8 medium (Invitrogen) using Matrigel® Matrix (Corning Life Sciences, Tewksbury, Mass.) and passaged using 0.5 mM EDTA (Invitrogen) for gentle dissociation.
Human iPSCs were generated using lentiviral particles by inducible lentiviral vectors or STEMCCA vectors to introduce the OSKM factors (Oct4, Sox2, Klf4, and c-Myc) into fibroblasts^49. ES-like colonies formed after 3 weeks of viral infection and the observed ES-like colonies were handpicked and transferred onto mouse feeder cells (MEF)-plated or Matrigel-coated tissue culture plates to generate iPSC lines. iPSC colonies were mechanically picked until iPSC lines were established.

SIRT1 = target: T1, SIRT1 (Homo sapiens, UniProt Q96EB6); conditions: cited from earlier work
T1 sequence (Q96EB6 1-747): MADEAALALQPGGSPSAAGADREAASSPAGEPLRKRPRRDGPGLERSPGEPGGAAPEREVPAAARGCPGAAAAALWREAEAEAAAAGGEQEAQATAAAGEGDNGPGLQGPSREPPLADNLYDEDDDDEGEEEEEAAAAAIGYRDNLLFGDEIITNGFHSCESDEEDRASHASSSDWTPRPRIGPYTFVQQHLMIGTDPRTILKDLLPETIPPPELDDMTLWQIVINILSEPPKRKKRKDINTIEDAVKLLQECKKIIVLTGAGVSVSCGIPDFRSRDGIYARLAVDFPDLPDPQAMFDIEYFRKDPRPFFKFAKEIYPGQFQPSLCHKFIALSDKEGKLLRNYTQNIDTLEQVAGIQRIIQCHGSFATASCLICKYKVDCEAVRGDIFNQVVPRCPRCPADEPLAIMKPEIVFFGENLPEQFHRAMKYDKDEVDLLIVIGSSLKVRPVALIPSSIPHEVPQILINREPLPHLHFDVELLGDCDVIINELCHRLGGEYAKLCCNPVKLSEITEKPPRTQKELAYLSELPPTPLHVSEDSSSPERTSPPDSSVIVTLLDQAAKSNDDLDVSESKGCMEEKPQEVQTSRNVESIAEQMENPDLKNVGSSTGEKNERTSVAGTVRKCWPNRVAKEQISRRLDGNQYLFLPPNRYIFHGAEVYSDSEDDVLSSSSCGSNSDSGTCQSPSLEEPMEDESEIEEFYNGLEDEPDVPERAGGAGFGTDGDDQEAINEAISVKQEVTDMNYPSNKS

[2] = system: hPSCs (H9, H7, hiPSC-1, hiPSC-2); experiment: Annexin V/7-AAD staining (apoptosis); format: cell-based, human; conditions: pretreatment; hPSCs with Dox-induced SIRT2 OE
PI3K = conditions: read-out: IC50 (PI3K inhibitor); cited from earlier work
SIRT2 [3] = target: T2, SIRT2 (Homo sapiens, UniProt Q8IXJ6); conditions: relative to SIRT1; cited from earlier work
T2 sequence (Q8IXJ6 1-389): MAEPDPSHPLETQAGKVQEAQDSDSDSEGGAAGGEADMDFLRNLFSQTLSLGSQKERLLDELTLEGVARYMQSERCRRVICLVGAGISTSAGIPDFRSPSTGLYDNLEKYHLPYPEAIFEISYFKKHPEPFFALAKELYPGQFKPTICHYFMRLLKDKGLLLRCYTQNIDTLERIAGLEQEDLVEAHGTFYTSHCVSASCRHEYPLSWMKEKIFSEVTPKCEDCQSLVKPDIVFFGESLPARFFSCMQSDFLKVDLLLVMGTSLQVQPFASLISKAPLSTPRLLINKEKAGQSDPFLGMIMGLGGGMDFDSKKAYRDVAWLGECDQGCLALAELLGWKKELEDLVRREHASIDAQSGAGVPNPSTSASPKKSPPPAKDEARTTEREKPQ

SIRT3 = target: T3, SIRT3 (Homo sapiens, UniProt Q9NTG7); conditions: cited from earlier work
T3 sequence (Q9NTG7 1-399): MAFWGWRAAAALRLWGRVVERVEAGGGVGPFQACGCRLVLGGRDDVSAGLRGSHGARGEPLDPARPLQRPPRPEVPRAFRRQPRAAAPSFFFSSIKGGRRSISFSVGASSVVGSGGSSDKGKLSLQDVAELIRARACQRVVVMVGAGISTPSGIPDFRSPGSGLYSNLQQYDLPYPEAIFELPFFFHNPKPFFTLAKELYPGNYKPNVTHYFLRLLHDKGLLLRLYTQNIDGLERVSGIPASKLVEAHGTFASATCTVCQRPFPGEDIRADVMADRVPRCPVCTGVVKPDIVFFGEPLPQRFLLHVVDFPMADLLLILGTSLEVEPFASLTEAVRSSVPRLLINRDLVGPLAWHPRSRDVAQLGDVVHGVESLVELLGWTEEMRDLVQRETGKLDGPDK

SIRT2 [4] = experiment: SIRT2 expression by qRT-PCR and western blot after pre-miRNA transfection; format: cell-based, human; conditions: fibroblasts transfected with pre-miRNA
Method: Samples (50 μg) were loaded onto a 12% SDS-PAGE and separated by electrophoresis followed by transfer onto a piece of Immun-Blot PVDF membrane (Bio-Rad, Hercules, Calif.). After transfer, the membrane was blocked at room temperature with Tris-buffered saline (TBS) containing 0.1% Tween-20 and 5% (w/v) skim milk for 3-5 h and then incubated overnight at 4° C. with primary antibody. The membrane was washed three times with TBS containing 0.05% Tween-20 (TBST) and then incubated for 2 h with the appropriate secondary antibody (Pierce, Rockford, Ill.). After washing twice with TBST and once with TBS, bound antibodies were detected by chemiluminescence using the SuperSignal® West Pico kit (Pierce). […]
Total RNA was extracted from cells by using the Direct-zol RNA purification Kit (Zymo research, Irvine, Calif.) and cDNA was synthesized using the ThermoScript™ RT-PCR system (Invitrogen). For quantitative analysis, qRT-PCR (Bio-Rad) was performed using SsoAdvanced SYBR Green supermix (Bio-Rad) with target genes specific primers. […]

[5] = system: CDS fragments of SIRT2 (MREs); experiment: Luciferase reporter assay; format: cell-based, human; conditions: 293T cells, psicheck2 SIRT2 CDS fragments
Excerpt: Human SIRT1 or SIRT2 was PCR-amplified from hESCs (H9) or hDFs, respectively, then cloned into the pGEM®-T Easy vector (Promega, Madison, Wis.). The 2A sequence of the Thoseaasigna virus (T2A)-linked EGFP was amplified from pCXLE-EGFP plasmid (#27082; Addgene, Cambridge, Mass.) by […], cloned into the […] vector. The SIRT1 and SIRT2 fragments were then cut off from the corresponding vectors and inserted into the pGEM-T-T2A-EGFP to generate pGEM-T-SIRT1-T2A-EGFP and pGEM-T-SIRT2-T2A-EGFP, respectively. The SIRT1-T2A-EGFP and SIRT2-T2A-EGFP constructs were confirmed by sequencing and then introduced into the EcoRI site of FUW-tetO vector (Addgene), respectively. Human AldoA-Myc constructs, the AldoA fragment was PCR-amplified from hESCs (H9), and then cloned into the pcDNA3.1-Myc/His vector (Invitrogen). For the psicheck2 constructs, the CDS fragments were cloned in downstream of a Renilla luciferase open reading frame. […]
The Promega dual luciferase assay kit was used to perform the luciferase assay according to the manufacturer's instruction. In brief, cell lysates were analyzed for luciferase activity using the dual luciferase system in which two luciferase enzymes, one (from Renilla reniformis) containing the experimental target sequence and another (from firefly) containing the control. […]

Compound: O=CC[C@@H](O)[C@H](O)[C@H](O)CO [2DG, 2-deoxy-glucose]
- glycolytic flux [1]: decreased the glycolytic flux in Y4+SIRT2 KD to the level of Y4 only without 2DG
- generation of iPSC-like colonies (hDFs): completely blocked

Compound: N#C/C(=C\c1ccc(-c2cc(Cl)ccc2Cl)o1)C(=O)Nc1cccc2ncccc12 [AGK2]
- effect on SIRT1 (SIRT1; at 10-fold higher levels than SIRT2 IC50): minimally affects

Compound: CC(=O)N[C@@H](CS)C(=O)O [N-acetyl-L-Cysteine]
- SIRT2-induced cell death [2]: rescued

Compound: O=c1c(O)c(-c2ccc(O)c(O)c2)oc2cc(O)cc(O)c12 [Quercetin]
- pIC50 (PI3K): 5.27 to 5.62

Compound: O=C(Nc1ccccc1-c1cn2c(CN3CCNCC3)csc2n1)c1cnc2ccccc2n1 [SRT1720]
- pEC50 (SIRT1; cell-free assay, read-out: EC50 (SIRT1 activator)): 6.80
- fold less potent for SIRT2 (SIRT2 [3]): > 230 fold
- fold less potent for SIRT3 (SIRT3; relative to SIRT1): > 230 fold

Compound: CN(C)CCCCC(=O)Nc1ccc(NC(=S)NC(=O)c2ccc(C(C)(C)C)cc2)cc1 [Tenovin-6]
- pIC50 (SIRT3; purified human SIRT3 in vitro, read-out: IC50 protein deacetylase activity of SIRT3): 4.17

Compound: CCCCCCCCCCCCCC(=S)NCCCC[C@H](NC(=O)OCc1ccccc1)C(=O)Nc1ccccc1 [Thiomyristoyl]
- inhibition of SIRT3 (SIRT3; at 200 μM): does not inhibit SIRT3 even at 200 μM

Compound: pre-miR-200c-5p: precursor miRNA oligomer of miR-200c-5p, CGUCUUACCCAGCAGUGUUUGG (SEQ ID NO: 1) (further chemistry not given here; listed as Homo sapiens)
- SIRT2 expression (mRNA and protein) (SIRT2 [4]): significantly decreased
- reporter expression of both MREs [5]: significantly decreased
